Data on one compound can be found in patent US20140024132A1, “METHODS AND SYSTEMS USING INTEGRATED METABOLOMICS AND PHARMACOKINETICS FOR MULTI-COMPONENT DRUG EVALUATION” (priority 2010, published 2014).

The nature of data set [1]: Urine levels of absorbed (bioavailable) Pu-erh tea components after a single Pu-erh tea intake, UPLC-QTOFMS and GC-TOFMS profiling. Type of data set: in vivo, human. To be noted: for FC (fold change): absorbed Pu-erh tea metabolite, human urine. The protocol:
Participants received a dose equivalent to 5 cups of commercially prepared tea. Twenty healthy men (n=10) and women (n=10) whose mean age was 25±2 years (range 22-32) were enrolled in this study, and written consent was obtained from each participant.
Volunteers were provided with identical standard meals three times per day during the experiment (e.g., breakfast: milk and bread; lunch: beef and vegetables; dinner: pork and cabbage). […] Urine samples were stored at −80° C. before analysis.
The tea infusion used in this study and the collected urine samples were centrifuged at 13,000 rpm for 10 min at 4° C., and the resulting supernatants were immediately stored at −80° C. pending UPLC-QTOFMS analysis. Ultrapure water (500 μL) was added to the tea or urine sample (500 μL) and vortexed for 1 min. The sample was then filtered through a syringe filter (0.22 μm) for UPLC-QTOFMS analysis.; incorporated by reference herein in its entirety.
The tea infusion (100 μL) described in Example 2 and urine samples (100 μL) were spiked with two internal standard solutions (10 μL-2-chlorophenylalanine in water, 0.3 mg/ml; 10 μL heptadecanoic acid in methanol, 1 mg/mL), and vortexed for 10 seconds. The mixed solution was extracted with 300 μL of methanol:chloroform (v/v 3:1) and vortexed for 30 seconds. After storing for 10 min at −20° C., the samples were centrifuged at 10,000 rpm for 10 min. An aliquot of the 300 μL supernatant was transferred to a glass sampling vial to vacuum dry at room temperature. The residue was derivatized using a two-step procedure. First, 80 μL methoxyamine (15 mg/mL in pyridine,) was added to the vial and kept at 30° C. for 90 min followed by 80 μL BSTFA (1% TMCS) at 70° C. for 60 min. See protocols set forth in Ni et al., FEBS Lett. 581: 707-711 (2007).; incorporated by reference herein in its entirety.
UPLC: Tea and urine metabolite profiling were performed using a Waters ACQUITY UPLC system equipped with a binary solvent delivery manager and a sample manager (Waters Corporation, Milford, Mass., USA), coupled to a Micromass Q-TOF Premier mass spectrometry equipped with an electrospray interface (Waters Corporation, Milford, M A, USA). Chromatographic separations were performed on a 2.1×100 mm 1.7 μm ACQUITY BEH C18 chromatography column. The column was maintained at 45° C. and eluted with a 1-99% acetonitrile (0.1% (v/v) formic acid)-aqueous formic acid (0.1% (v/v) formic acid) gradient over 10 min at a flow rate of 0.40 mL/min. A 5 μL aliquot sample was injected onto the column.
Mass Spectrometry: The mass accuracy analysis and detailed MS parameters were optimized according to our prior studies, which is incorporated herein in its entirety. During metabolite profiling experiments, centroid data was acquired for each sample from 50 to 1000 Da with a 0.10 sec scan time and a 0.01 sec interscan delay over a 10 min analysis time. A metabonomics MS System Test Mixture including acetaminophen, tolbutamide, 3′-azido-3′-deoxythymidine, reserpine, verapamil and coumarin was used as chromatographic reference and mass accuracy quality control. This test mixture was injected every ten injections. The mass spectrometer was operated in positive ion mode. The desolvation temperature was set to 400° C. at a flow rate of 700 L/hr and source temperature of 100° C. The capillary and cone voltages were set to 3500 and 45 V, respectively. The data was collected between 50-1000 m/z with alternating collision energy, at 5 eV for precursor ion information generation and a collision profile from 10-40 eV for fragment ion information. The Q-TOF Premier™ was operated in v mode with 10,000 mass resolving power. Data were centroided during acquisition using independent reference lock-mass ions via the LockSpray™ interface to ensure mass accuracy and reproducibility. Leucine-enkephalin was used as the reference compound at a concentration of 50 pg/μL and an infusion flow rate of 0.05 mL/min.

Data set [2] in a line: Pearson correlation of absorbed, biotransformed plant metabolites and altered endogenous metabolites in urine. The format is in vivo, human. To be noted: ρ≧0.7 or ρ≦−0.7, urine, FIG. 13.
Method: Similarly, in order to study the relationship of dynamic response of metabolites along with the time course, mean value of each metabolite was calculated at each time point (0 h→1 h→2 h→3 h→6 h→12 h→24 h). A new metabolite vector with 7 mean values calculated at 7 different time points, representing the average response, was constructed and the Pearson correlation coefficients were calculated similarly with the pair-wise comparison of metabolites.

Molecules are shown by their SMILES.

Turning to `Cn1c(=O)c2c(ncn2C)n(C)c1=O` [Caffeine], the “FC (fold change)” value in data set [1] (1 h post-dose vs pre-dose) is 454.37; in data set [1] (3 h post-dose vs pre-dose), 573.74; in data set [1] (6 h post-dose vs pre-dose), 437.21; in data set [1] (9 h post-dose vs pre-dose), 277.02; in data set [1] (12 h post-dose vs pre-dose), 160.06; in data set [1] (24 h post-dose vs pre-dose) it was 46.28. In data set [1] (absorbed plant metabolites, after oral administration of Pu-erh tea, FIG. 10A), the “time at which concentration reached maximum levels in urine” value came to 1 h. Also, the “time at which cleared away from urine” value in data set [1] (absorbed plant metabolites, post-dose, FIG. 10A) is 9 h. Moreover, the “correlation with its biodegradated metabolites paraxanthine, theophylline, hippuric acid and 3-hydroxyphenylacetic acid” value in data set [2] is recorded as “positively corrected”.
